Reference: patent US20160304547A1, “MACROLIDE COMPOUND” (PULIKE BIOLOGICAL ENGINEERING, INC, priority 2013, published 2016)
In brackets after ≈: the same amount, converted by molar mass. Read-outs that look alike come from different tables or passages of the source.

Columns and labels:
[1] = test system: Streptococcus pneumoniae CMCC 31203; test: In vivo antibacterial test, survival of infected BALB/c mice; settings: CMCC31203, sc, 168 h, read-out: Animal survival rate
[2] = test system: Staphylococcus aureus CVCC26003; test: MIC by mini broth dilution technique (in vitro susceptibility); assay type: cell-based
Description: (§1) in vitro tests of susceptibility of the compounds according to the present disclosure against bacterial strains commonly used in laboratories. In accordance with the Performance Standards for Antimicrobial Disk Susceptibility Tests: Approved Standard published by the US National Committee for Clinical Laboratory Standards, the antibactetial activities of compounds prepared according to examples 5 to 187 were tested. The MICs (minimum inhibitory concentration) of the medicaments prepared according to the examples on the following bacterial strains were measured through mini broth dilution technique. Staphylococcus aureus CVCC26003, Streptococcus equines CVCC556. Actinobacillus pleuropneumoniae CVCC262, Haemophilus parasuis, and Pasteurella multocida CVCC399, which were purchased from the Control Institute of Veterinary Bioproducts and Pharmaceuticals, China. Liquid culture medium: CAMHB. […] Solid culture medium: NINA prepared according to the specification of the final product. The strains were taken out of a regrigerator at −20° C. to be revived, and were spreaded by streaking on the solid culture medium with an inoculating loop. The inoculated culture medium was cultured at 35° C. in a constant temperature incubator for 20 h. Monoclonal antibodies were selected from a well-grown culture plate and streaked on the solid culture medium. The inoculated culture medium was cultured at 35° C. in the constant temperature incubator for 20 h. […] A 96-well plate was used, and 100 μl of DMSO was added into each of wells 2 to 11, and 200 μl of ready-prepared medicament solution was added into the 1st well, 100 μl of the medicament solution was extracted from the 1st well and added into the 2nd well. Double dilution was performed until the 11th well, thereby forming 11 gradients. In this case, compound of parent plate was prepared. 3 μl of double diluted medicament solution was extracted with a 12-channel pipettor and added into wells 1-11 of a new disposable 96-well culture plate. The 12th well thereof is a controll well. For each medicament, there are two adjacent rows which are parallel. The transferred compound plate was reserved for later use. […] The dilution ratio was recorded, and the bacterial liquid for the tests was diluted according to the recorded dilution ratio. Subsequently, the bacterial suspension and the liquid culture medium were diluted in the proportion of 1:200. The diluted solution was reserved for later use.

[3] = test system: Actinobacillus pleuropneumoniae CVCC262; test: as above; assay type: cell-based
Description: as §1, with “medium:” for “medium: CAMHB.”, “NINA prepared according to the specification of the final product.” left out

[4] = test system: Pasteurella multocida CVCC399; test: as above; assay type: cell-based
Description: as §1, with “medium:” for “medium: CAMHB.”, “NINA prepared according to the specification of the final product.” left out

[5] = test system: Streptococcus equines CVCC556; test: as above; assay type: cell-based
Description: as §1, with “medium:” for “medium: CAMHB.”, “NINA prepared according to the specification of the final product.” left out

Haemophilus parasuis = test: as above; assay type: cell-based; settings: Glaesserella parasuis, read-out: MIC values Haemophilus parasuis
Description: as §1, with “medium:” for “medium: CAMHB.”, “NINA prepared according to the specification of the final product.” left out

[6] = BALB/c mice infected i.p. with Streptococcus pneumoniae, 5 mg per kg s.c. via neck for 3 consecutive days, deaths recorded until the seventh day
[7] = Staphylococcus aureus CVCC26003, broth dilution, read-out: MIC values Staphylococcus aureus CVCC26003
[8] = Actinobacillus pleuropneumoniae CVCC262, broth dilution, read-out: MIC values Actinobacillus pleuropneumoniae CVCC262
[9] = Pasteurella multocida CVCC399, broth dilution, read-out: MIC values Pasteurella multocida CVCC399
[10] = Streptococcus equines CVCC556, broth dilution, read-out: MIC values Streptococcus equines CVCC556
[11] = Haemophilus parasuis, broth dilution

CC[C@@H]1OC(=O)[C@H](C)[C@H](OC2C[C@@](C)(OC)[C@](O)(CN3CCCCC3)[C@H](C)O2)[C@@H](C)[C@@H](O[C@@H]2O[C@H](C)C[C@H](N(C)C)[C@H]2O)[C@](C)(O)C[C@@H](C)NC[C@@H](C)[C@H](O)[C@]1(C)O (stereo partly drawn) [syzx-15, (2R,3S,4R,5S,8R,10R,11R,12S,13S,14R)-13-[(2,6-dideoxy-3-C-methyl-3-O-methyl-4-C-[piperidinylmethyl]-α-L-ribopyranosyl)oxy]-2-ethyl-3,4,10-trihydroxy-3,5,8,10,12,14-hexamethyl-11-[[3,4,6-trideoxy-3-(dimethylamino)-β-D-xylo-hexopyranosy]oxy]-1-oxa-7-azacyclopentadecan-15-one]
responders at 5 mg/kg [1, 6]: 70% | MIC [2, 7]: ≤ 0.25 µg/mL | MIC [3, 8]: 0.5 µg/mL (≈ 0.601 µM) | MIC [4, 9]: ≤ 0.25 µg/mL | MIC [5, 10]: ≤ 0.25 µg/mL | MIC (Haemophilus parasuis; [11]): ≤ 0.25 µg/mL

CC[C@@H]1OC(=O)[C@H](C)[C@H](OC2C[C@@](C)(OC)[C@](O)(CNCC3CC3)[C@H](C)O2)[C@@H](C)[C@@H](O[C@@H]2O[C@H](C)C[C@H](N(C)C)[C@H]2O)[C@](C)(O)C[C@@H](C)NC[C@@H](C)[C@H](O)[C@]1(C)O (stereo partly drawn) [syzx-17, (2R,3S,4R,5S,8R,10R,11R,12S,13S,14R)-13-[(2,6-dideoxy-3-C-methyl-3-O-methyl-4-C-[(cyclopropylmethylamino)methyl]-α-L-ribopyranosyl)oxy]-2-ethyl-3,4,10-trihydroxy-3,5,8,10,12,14-hexamethyl-11-[[3,4,6-trideoxy-3-(dimethylamino)-β-D-xylo-hexopyranosy]oxy]-1-oxa-7-azacyclopentadecan-15-one]
responders at 5 mg/kg [1, 6]: 70% | MIC [2, 7]: ≤ 0.25 µg/mL | MIC [3, 8]: 2 µg/mL (≈ 2.44 µM) | MIC [4, 9]: 0.25 µg/mL (≈ 0.306 µM) | MIC [5, 10]: ≤ 0.25 µg/mL | MIC (Haemophilus parasuis; [11]): ≤ 0.25 µg/mL

CC[C@@H]1OC(=O)[C@H](C)[C@H](OC2C[C@@](C)(OC)[C@](O)(CNC3CCCC3)[C@H](C)O2)[C@@H](C)[C@@H](O[C@@H]2O[C@H](C)C[C@H](N(C)C)[C@H]2O)[C@](C)(O)C[C@@H](C)NC[C@@H](C)[C@H](O)[C@]1(C)O (stereo partly drawn) [syzx-30, (2R,3S,4R,5S,8R,10R,11R,12S,13S,14R)-13-[(2,6-dideoxy-3-C-methyl-3-O-methyl-4-C-[(cyclopentylamino)-methyl]-α-L-ribopyranosyl)oxy]-2-ethyl-3,4,10-trihydroxy-3,5,8,10,12,14-hexamethyl-11-[[3,4,6-trideoxy-3-(dimethylamino)-β-D-xylo-hexopyranosy]oxy]-1-oxa-7-azacyclopentadecan-15-one]
responders at 5 mg/kg [1, 6]: 80% | MIC [2, 7]: ≤ 0.25 µg/mL | MIC [3, 8]: 0.5 µg/mL (≈ 0.601 µM) | MIC [4, 9]: ≤ 0.25 µg/mL | MIC [5, 10]: ≤ 0.25 µg/mL | MIC (Haemophilus parasuis; [11]): 0.5 µg/mL (≈ 0.601 µM)

CC[C@@H]1OC(=O)[C@H](C)[C@H](OC2C[C@@](C)(OC)[C@](O)(CNCc3cccc(OC)c3)[C@H](C)O2)[C@@H](C)[C@@H](O[C@@H]2O[C@H](C)C[C@H](N(C)C)[C@H]2O)[C@](C)(O)C[C@@H](C)NC[C@@H](C)[C@H](O)[C@]1(C)O (stereo partly drawn) [syzx-35, (2R,3S,4R,5S,8R,10R,11R,12S,13S,14R)-13-[(2,6-dideoxy-3-C-methyl-3-O-methyl-4-C-[[3-methoxybenzyl-amino]-methyl]-α-L-ribopyranosyl)oxy]-2-ethyl-3,4,10-trihydroxy-3,5,8,10,12,14-hexamethyl-11-[[3,4,6-trideoxy-3-(dimethylamino)-β-D-xylo-hexopyranosy]oxy]-1-oxa-7-azacyclopentadecan-15-one]
responders at 5 mg/kg ([1]; Streptococcus pneumoniae): 70% | MIC ([2]; Staphylococcus aureus, CVCC26003, read-out: MIC values Staphylococcus aureus CVCC26003): 0.25 µg/mL (≈ 0.283 µM) | MIC ([3]; Actinobacillus pleuropneumoniae, CVCC262, read-out: MIC values Actinobacillus pleuropneumoniae CVCC262): 0.25 µg/mL (≈ 0.283 µM) | MIC ([4]; Pasteurella multocida, CVCC399, read-out: MIC values Pasteurella multocida CVCC399): 1 µg/mL (≈ 1.13 µM) | MIC ([5]; Streptococcus, CVCC556, read-out: MIC values Streptococcus equines CVCC556): 0.5 µg/mL (≈ 0.566 µM) | MIC (Haemophilus parasuis): 0.25 µg/mL (≈ 0.283 µM)

CCCCCNC[C@]1(O)[C@H](C)OC(O[C@@H]2[C@@H](C)[C@@H](O[C@@H]3O[C@H](C)C[C@H](N(C)C)[C@H]3O)[C@](C)(O)C[C@@H](C)NC[C@@H](C)[C@H](O)[C@](C)(O)[C@H](CC)OC(=O)[C@@H]2C)C[C@@]1(C)OC (stereo partly drawn) [syzx-47, (2R,3S,4R,5S,8R,10R,11R,12S,13S,14R)-13-[(2,6-dideoxy-3-C-methyl-3-O-methyl-4-C-[[n-pentyl-amino]-methyl]-α-L-ribopyranosyl)oxy]-2-ethyl-3,4,10-trihydroxy-3,5,8,10,12,14-hexamethyl-11-[[3,4,6-trideoxy-3-(dimethylamino)-β-D-xylo-hexopyranosy]oxy]-1-oxa-7-azacyclopentadecan-15-one]
responders at 5 mg/kg [1, 6]: 90% | MIC [2, 7]: 1 µg/mL (≈ 1.2 µM) | MIC [3, 8]: 0.5 µg/mL (≈ 0.599 µM) | MIC [4, 9]: ≤ 0.25 µg/mL | MIC [5, 10]: ≤ 0.25 µg/mL | MIC (Haemophilus parasuis; [11]): 0.5 µg/mL (≈ 0.599 µM)

CC[C@@H]1OC(=O)[C@H](C)[C@H](OC2C[C@@](C)(OC)[C@](O)(CNCc3cnc(C)cn3)[C@H](C)O2)[C@@H](C)[C@@H](O[C@@H]2O[C@H](C)C[C@H](N(C)C)[C@H]2O)[C@](C)(O)C[C@@H](C)NC[C@@H](C)[C@H](O)[C@]1(C)O (stereo partly drawn) [syzx-65]
responders at 5 mg/kg [1, 6]: 90% | MIC [2, 7]: ≤ 0.25 µg/mL | MIC [3, 8]: 32 µg/mL (≈ 36.8 µM) | MIC [4, 9]: 1 µg/mL (≈ 1.15 µM) | MIC [5, 10]: ≤ 0.25 µg/mL | MIC (Haemophilus parasuis; [11]): ≤ 0.25 µg/mL

CC[C@@H]1OC(=O)[C@H](C)[C@H](OC2C[C@@](C)(OC)[C@](O)(CNCCCOC)[C@H](C)O2)[C@@H](C)[C@@H](O[C@@H]2O[C@H](C)C[C@H](N(C)C)[C@H]2O)[C@](C)(O)C[C@@H](C)NC[C@@H](C)[C@H](O)[C@]1(C)O (stereo partly drawn) [syzx-66]
responders at 5 mg/kg [1, 6]: 80% | MIC [2, 7]: 1 µg/mL (≈ 1.2 µM) | MIC [3, 8]: 8 µg/mL (≈ 9.57 µM) | MIC [4, 9]: ≤ 0.25 µg/mL | MIC [5, 10]: 0.5 µg/mL (≈ 0.598 µM) | MIC (Haemophilus parasuis; [11]): ≤ 0.25 µg/mL

CC[C@@H]1OC(=O)[C@H](C)[C@H](OC2C[C@@](C)(OC)[C@](O)(CNCC3CCCCC3)[C@H](C)O2)[C@@H](C)[C@@H](O[C@@H]2O[C@H](C)C[C@H](N(C)C)[C@H]2O)[C@](C)(O)C[C@@H](C)NC[C@@H](C)[C@H](O)[C@]1(C)O (stereo partly drawn) [syzx-67]
responders at 5 mg/kg [1, 6]: 70% | MIC [2, 7]: ≤ 0.25 µg/mL | MIC [3, 8]: 0.5 µg/mL (≈ 0.581 µM) | MIC [4, 9]: ≤ 0.25 µg/mL | MIC [5, 10]: ≤ 0.25 µg/mL | MIC (Haemophilus parasuis; [11]): ≤ 0.25 µg/mL

CCCN1C[C@@H](C)[C@@H](O)[C@](C)(O)[C@H](CC)OC(=O)[C@H](C)[C@H](OC2C[C@@](C)(OC)[C@](O)(CN(C)CC)[C@H](C)O2)[C@H](C)[C@@H](O[C@@H]2O[C@H](C)C[C@H](N(C)C)[C@H]2O)[C@](C)(O)C[C@H]1C (stereo partly drawn) [syzx-213]
responders at 5 mg/kg [1, 6]: 90% | MIC [2, 7]: 0.25 µg/mL (≈ 0.295 µM) | MIC [3, 8]: 0.25 µg/mL (≈ 0.295 µM) | MIC [4, 9]: 0.25 µg/mL (≈ 0.295 µM) | MIC [5, 10]: 0.25 µg/mL (≈ 0.295 µM) | MIC (Haemophilus parasuis; [11]): 0.25 µg/mL (≈ 0.295 µM)
